Assays:
[1] = target: RIPK1 (Homo sapiens (Human), UniProt Q13546); assay: RIPK1 ADP-Glo biochemical kinase assay; settings: read-out: RIPK1 ADP-Glo Kinase (IC50)
Experimental: The final reaction volume was 5.0ul.
Adding 5 μl of ADP-Glo™ terminated the reaction.

[2] = system: U937 cells; assay: U937 cell necroptosis assay (TNFa + zVAD, CellTiter-Glo); format: cell-based, human; settings: Homo sapiens, U-937, U937 cells, TNFa + zVAD; read-out: U937 Zvad TNF CTG Recovery, U937, TNFa + zVAD (IC50)
Experimental: (§1) In this example, U937 and L929 cells were exposed to compounds of the present disclosure and a cell necroptosis assay was conducted to evaluate the compounds' activity against human RIP1 and murine RIP1.
(§2) U937 and L929 cells were obtained from the American Type Culture Collection (Manassa, Va., USA). Both cells were maintained in logarithmic growth phase in complete RPMI 1640 media (Sigma, ST Louis, Mo., USA) supplemented with 10% fetal bovine serum (Sigma, ST Louis, Mo., USA) at 37° C. with 5% CO2. For necroptosis assay, L929 cells were plated for 18 h in 100 μL/well medium at 10K cells/well in Costar 96-well black clear-bottom plates (Fisher Scientific, Hampton, N.H., USA); U937 cells were plated on the day of the assay in 50 4/well medium containing 60 uM zVAD-fink (Lonza, Basel, Switzerland) at 50K cells/well. Medium from L929 cells were removed from the 96-well plates and replaced with 50 μL/well new medium containing 40 uM zVAD-fink. Each compound of the present disclosure evaluated in this example was serially diluted in DMSO from 2.5 mM in 4-fold dilutions, and then diluted 1:125 in complete medium. 50 μL/well 2× of the compound was then added to the cells in the plates. The cells were pre-incubated with the compound for 1 hour at 37° C. with 5% CO2 and before addition of 10 μL/well 1 1×TNFa (Peprotech, Rocky Hill, N.J., USA) to give a final concentration of 2 ng/mL for TNFa. The relative amount of necroptosis cells was determined by luminescent using a Wallac Victor2 Luminometer (PerkinElmer, Waltham, Mass., USA) and a CellTiter-Glo® Luminescent Cell Viability Reagent Assay (Promega, Madison, Wis., USA) added per manufacturer instructions after 18 hours of TNFa stimulation at 37° C. with 5% CO2. This example establishes that embodiments of the compounds described herein have unexpectedly potent activity against human RIP1 and murine RIP1, which allows their assessment in in vivo mouse models of disease.

[3] = system: L929 cells; assay: L929 cell necroptosis assay (TNFa + zVAD, CellTiter-Glo); format: cell-based, murine; settings: Mus musculus, L929, L929 cells, TNFa + zVAD; read-out: L929-CTG-recovery, L929, TNFa + zVAD (IC50)
Experimental: as §1
as §2, with “The cells were pre-incubated with the compound for 1 hour at 37° C. with 5% CO2 and before addition of 10 μL/well 1 1×TNFa (Peprotech, Rocky Hill, N.J., USA) to give a final concentration of 2 ng/mL for TNFa.” left out, “CO2.” for “CO2. This example establishes that embodiments of the compounds described herein have unexpectedly potent activity against human RIP1 and murine RIP1, which allows their assessment in in vivo mouse models of disease.”

Sequence of RIPK1 (Q13546 whole entry, species assumed): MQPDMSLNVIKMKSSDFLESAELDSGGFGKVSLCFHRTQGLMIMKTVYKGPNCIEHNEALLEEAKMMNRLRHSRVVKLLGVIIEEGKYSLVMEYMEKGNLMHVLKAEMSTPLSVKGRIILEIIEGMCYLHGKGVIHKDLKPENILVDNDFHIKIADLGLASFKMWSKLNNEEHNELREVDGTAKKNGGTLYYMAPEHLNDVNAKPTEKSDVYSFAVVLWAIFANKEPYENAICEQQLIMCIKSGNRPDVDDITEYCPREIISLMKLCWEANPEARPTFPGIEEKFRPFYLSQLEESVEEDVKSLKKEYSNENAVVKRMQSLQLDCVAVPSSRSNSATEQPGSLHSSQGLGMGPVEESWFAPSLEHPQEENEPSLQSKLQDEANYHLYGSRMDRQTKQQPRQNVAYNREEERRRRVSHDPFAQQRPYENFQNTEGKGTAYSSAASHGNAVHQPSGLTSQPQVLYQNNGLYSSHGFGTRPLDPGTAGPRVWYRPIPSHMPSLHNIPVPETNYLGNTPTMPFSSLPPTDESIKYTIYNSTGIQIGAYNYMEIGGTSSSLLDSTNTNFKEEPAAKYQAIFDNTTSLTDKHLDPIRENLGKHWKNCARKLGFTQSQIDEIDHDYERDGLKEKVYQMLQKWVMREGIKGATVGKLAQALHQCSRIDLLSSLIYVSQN

Row | IC50 [1] | Structure (SMILES) | IC50 [2] | IC50 [3]
1 | 15.7 nM | CN1C(=O)[C@@H](NC(=O)c2n[nH]c(Cc3ccccc3)n2)COc2ccc(CCC(=O)Nc3ccc4[nH]ncc4c3)cc21 [Compound I-2, (S)—N-(7-(3-((1H-indazol-5-yl)amino)-3-oxopropyl)-5-methyl-4-oxo-2,3,4,5-tetrahydrobenzo[b][1,4]oxazepin-3-yl)-5-benzyl-1H-1,2,4-triazole-3-carboxamide] | 31.9 nM | 
2 | 56.8 nM | COc1cc2ncnc(NC(=O)CCc3ccc4c(c3)N(C)C(=O)[C@@H](NC(=O)c3n[nH]c(Cc5ccccc5)n3)CO4)c2cc1OC [Compound I-4, (S)-5-benzyl-N-(7-(3-((6,7-dimethoxyquinazolin-4-yl)amino)-3-oxopropyl)-5-methyl-4-oxo-2,3,4,5-tetrahydrobenzo[b][1,4]oxazepin-3-yl)-1H-1,2,4-triazole-3-carboxamide] | 29.3 nM | 
3 | 189 nM | CN1C(=O)[C@@H](NC(=O)c2n[nH]c(Cc3ccccc3)n2)COc2ccc(CCC(=O)O)cc21 [Compound I-9, (S)-3-(3-(5-benzyl-1H-1,2,4-triazole-3-carboxamido)-5-methyl-4-oxo-2,3,4,5-tetrahydrobenzo[b][1,4]oxazepin-7-yl)propanoic acid] | 362 nM | 
4 | 53.9 nM | CN1C(=O)[C@@H](NC(=O)c2n[nH]c(Cc3ccccc3)n2)COc2ccc(CCC(=O)NC3CC3)cc21 [Compound I-13, (S)-5-benzyl-N-(7-(3-(cyclopropylamino)-3-oxopropyl)-5-methyl-4-oxo-2,3,4,5-tetrahydrobenzo[b][1,4]oxazepin-3-yl)-1H-1,2,4-triazole-3-carboxamide] | 13.8 nM | 
5 | 158 nM | CN1C(=O)[C@@H](NC(=O)c2n[nH]c(Cc3ccc(F)cc3F)n2)COc2ccc(CCC(=O)NC3CC3)cc21 [Compound I-27, (S)—N-(7-(3-(cyclopropylamino)-3-oxopropyl)-5-methyl-4-oxo-2,3,4,5-tetrahydrobenzo[b][1,4]oxazepin-3-yl)-5-(2,4-difluorobenzyl)-1H-1,2,4-triazole-3-carboxamide] | 69.7 nM | 
6 | 33.4 nM | CN1C(=O)[C@@H](NC(=O)c2n[nH]c(Cc3ccccc3)n2)COc2ccc(CCC(N)=O)cc21 [Compound I-31, (S)—N-(7-(3-amino-3-oxopropyl)-5-methyl-4-oxo-2,3,4,5-tetrahydrobenzo[b][1,4]oxazepin-3-yl)-5-benzyl-1H-1,2,4-triazole-3-carboxamide] | 33.7 nM | 
7 | 12400 nM | CN1C(=O)[C@@H](NC(=O)c2ccc(Oc3ccccc3)cn2)COc2ccc(C#CC(C)(C)O)cc21 [Compound I-121, (S)—N-(7-(3-hydroxy-3-methylbut-1-yn-1-yl)-5-methyl-4-oxo-2,3,4,5-tetrahydrobenzo[b][1,4]oxazepin-3-yl)-5-phenoxypicolinamide] | 30300 nM | 
8 |  | CN1C(=O)[C@@H](NC(=O)c2cc(Oc3ccc(F)cc3)ccn2)COc2ccc(C#CC(C)(C)COC(=O)CCC(=O)O)cc21 [Compound I-170, (S)-4-((4-(3-(4-(4-fluorophenoxy)picolinamido)-5-methyl-4-oxo-2,3,4,5-tetrahydrobenzo[b][1,4]oxazepin-7-yl)-2,2-dimethylbut-3-yn-1-yl)oxy)-4-oxobutanoic acid] | 14.8 nM | 1840 nM
9 |  | C[C@H](N)C(=O)OCC(C)(C)C#Cc1ccc2c(c1)N(C)C(=O)[C@@H](NC(=O)c1cc(Oc3ccc(F)cc3)ccn1)CO2 [Compound I-171, 4-((S)-3-(4-(4-fluorophenoxy)picolinamido)-5-methyl-4-oxo-2,3,4,5-tetrahydrobenzo[b][1,4]oxazepin-7-yl)-2,2-dimethylbut-3-yn-1-yl L-alaninate] | 6.4 nM | 394 nM
10 |  | CC(C)[C@H](N)C(=O)OCC(C)(C)C#Cc1ccc2c(c1)N(C)C(=O)[C@@H](NC(=O)c1cc(Oc3ccc(F)cc3)ccn1)CO2 [Compound I-172, 4-((S)-3-(4-(4-fluorophenoxy)picolinamido)-5-methyl-4-oxo-2,3,4,5-tetrahydrobenzo[b][1,4]oxazepin-7-yl)-2,2-dimethylbut-3-yn-1-yl L-valinate] | 22.1 nM | 850 nM
11 |  | CN1C(=O)[C@@H](NC(=O)c2cc(Oc3ccccc3)ccn2)COc2ccc(C#CC(C)(C)COP(=O)(O)O)cc21 [Compound I-173, (S)-2,2-dimethyl-4-(5-methyl-4-oxo-3-(4-phenoxypicolinamido)-2,3,4,5-tetrahydrobenzo[b][1,4]oxazepin-7-yl)but-3-yn-1-yl dihydrogen phosphate] | 48.5 nM | 2860 nM
12 |  | CN1C(=O)[C@@H](NC(=O)c2cc(Oc3ccc(F)cc3)ccn2)COc2ccc(C#CC(C)(C)COP(=O)(O)O)cc21 [Compound I-174, (S)-4-(3-(4-(4-fluorophenoxy)picolinamido)-5-methyl-4-oxo-2,3,4,5-tetrahydrobenzo[b][1,4]oxazepin-7-yl)-2,2-dimethylbut-3-yn-1-yl dihydrogen phosphate] | 438 nM | 16500 nM
13 |  | CN1C(=O)[C@@H](NC(=O)c2cc(Oc3ccccc3)ccn2)COc2ccc(C#CC3(O)CN(CC4CC4)C3)cc21 [Compound I-196, (S)—N-(7-((1-(cyclopropylmethyl)-3-hydroxyazetidin-3-yl)ethynyl)-5-methyl-4-oxo-2,3,4,5-tetrahydrobenzo[b][1,4]oxazepin-3-yl)-4-phenoxypicolinamide] | 3.3 nM | 201 nM
14 |  | CC(=O)N1CC(O)(C#Cc2ccc3c(c2)N(C)C(=O)[C@@H](NC(=O)c2cc(Oc4ccccc4)ccn2)CO3)C1 [Compound I-197, (S)—N-(7-((1-acetyl-3-hydroxyazetidin-3-yl)ethynyl)-5-methyl-4-oxo-2,3,4,5-tetrahydrobenzo[b][1,4]oxazepin-3-yl)-4-phenoxypicolinamide] | 0.7 nM | 70.6 nM
15 |  | CCNC(=O)N1CC(O)(C#Cc2ccc3c(c2)N(C)C(=O)[C@@H](NC(=O)c2cc(Oc4ccccc4)ccn2)CO3)C1 [Compound I-198, (S)—N-(7-((1-(ethylcarbamoyl)-3-hydroxyazetidin-3-yl)ethynyl)-5-methyl-4-oxo-2,3,4,5-tetrahydrobenzo[b][1,4]oxazepin-3-yl)-4-phenoxypicolinamide] | 0.9 nM | 39.1 nM
16 |  | CN1C(=O)[C@@H](NC(=O)c2cc(Oc3ccccc3)ccn2)COc2ccc(C#CC(C)(C)N3CCS(=O)(=O)CC3)cc21 [Compound I-211, (S)—N-(7-(3-(1,1-Dioxidothiomorpholino)-3-methylbut-1-yn-1-yl)-5-methyl-4-oxo-2,3,4,5-tetrahydrobenzo[b][1,4]oxazepin-3-yl)-4-phenoxypicolinamide] | 1.1 nM | 44.8 nM
17 |  | CN1C(=O)[C@@H](NC(=O)n2cc(Cc3ccc(F)cc3F)cn2)COc2ccc(C#CC(C)(C)CO)cc21 [Compound I-239, (S)-4-(2,4-Difluorobenzyl)-N-(7-(4-hydroxy-3,3-dimethylbut-1-yn-1-yl)-5-methyl-4-oxo-2,3,4,5-tetrahydrobenzo[b][1,4]oxazepin-3-yl)-1H-pyrazole-1-carboxamide] | 8.8 nM | 218 nM

Row | Structure (SMILES) | IC50 [1] | IC50 [2] | IC50 [3]
18 | CN1C(=O)[C@@H](NC(=O)c2n[nH]c(Cc3ccccc3)n2)COc2ccc(C#CC3(O)CCC3)cc21 [Compound I-51, (S)-5-benzyl-N-(7-((1-hydroxycyclobutyl)ethynyl)-5-methyl-4-oxo-2,3,4,5-tetrahydrobenzo[b][1,4]oxazepin-3-yl)-1H-1,2,4-triazole-3-carboxamide] | 31.7 nM |  | 
